# Data as given in patent US20170027941A1, “Bruton's Tyrosine Kinase Inhibitor Combinations and Uses Thereof” (Pharmacyclics LLC, priority 2015, published 2017).
# How the values were obtained:
# Format in all cases: cell-based
# pAkt = assay: Western blot of pAkt in renal cancer cell lines
# Text: (§1) Whole cell lysates in 1× sample buffer (Invitrogen) were electrophoresed on a 4%-12% Bis-Tris gel. After transferring the proteins onto a PVDF membrane, the blot was probed by antibodies, and the signal was detected using the Odyssey imager (LI-COR Biosciences). Paired mouse and rabbit antibodies were used to probe the total protein, and the corresponding phosphorylated proteins. The effect of ibrutinib treatment, with and without EGF stimulation/induction, on various proteins was studied. A one-hour pre-treatment with ibrutinib and a 10-minute stimulation with EGF was conducted. […] As such, ibrutinib ameliorates the effect (i.e., the undesired effects) of mTOR inhibitor alone.
# (§2) Cell lysates were prepared from RCC cells which were treated with different concentrations of pazopanib for overnight incubation. Antibodies that correlate to the proteins of interest were used for detection.
# pEGFR = assay: Western blot of pEGFR in renal cancer cell lines; details: A498, 769-P, RENCA, ACHN; one-hour pre-treatment, 10-minute EGF stimulation
# Text: as §1
# pERK = assay: Western blot of pERK in renal cancer cell lines; details: A498, 769-P, RENCA, ACHN; one-hour pre-treatment, 10-minute EGF stimulation
# Text: as §1, §2
SMILES,"pAkt (both pAkt T308 and pAkt S473) (pAkt; ACHN cell line, 24 h treatment, FIG. 8)",EGF-induced pEGFR (pEGFR),"pAkt (pAkt; A498, 769-P, RENCA, ACHN, one-hour pre-treatment, 10-minute EGF stimulation)",pERK (pERK)
CO[C@H]1C[C@@H]2CC[C@@H](C)[C@@](O)(O2)C(=O)C(=O)N2CCCC[C@H]2C(=O)O[C@H]([C@H](C)C[C@@H]2CC[C@@H](OCCO)[C@H](OC)C2)CC(=O)[C@H](C)/C=C(\C)[C@@H](O)[C@@H](OC)C(=O)[C@H](C)C[C@H](C)/C=C/C=C/C=C/1C [everolimus],induced up-regulation of pAkt,–,–,–
"C=CC(=O)N1CCC[C@@H](n2nc(-c3ccc(Oc4ccccc4)cc3)c3c(N)ncnc32)C1 [ibrutinib, 1-((R)-3-(4-amino-3-(4-phenoxyphenyl)-1H-pyrazolo[3,4-d]pyrimidin-1-yl)piperidin-1-yl)prop-2-en-1-one]",–,inhibits EGF-induced pEGFR,limited impacts,limited impacts
